Test results: publication PMC12615753, “Glutathione as a taste modulator: molecular mechanisms of interaction with umami and sweet taste receptors” (Food Chemistry: Molecular Sciences, 2025)

Target: T1, hTAS1R1 R151A/rTAS1R3 (Homo sapiens, UniProt Q7RTX1, R151A)
T1 construct: UniProtKB number Q7RTX1–1); expressed in transfected cells; host or cells: HEK293T/17 (ATCC CRL-11268)
T1 sequence (Q7RTX1 21-841 R151A): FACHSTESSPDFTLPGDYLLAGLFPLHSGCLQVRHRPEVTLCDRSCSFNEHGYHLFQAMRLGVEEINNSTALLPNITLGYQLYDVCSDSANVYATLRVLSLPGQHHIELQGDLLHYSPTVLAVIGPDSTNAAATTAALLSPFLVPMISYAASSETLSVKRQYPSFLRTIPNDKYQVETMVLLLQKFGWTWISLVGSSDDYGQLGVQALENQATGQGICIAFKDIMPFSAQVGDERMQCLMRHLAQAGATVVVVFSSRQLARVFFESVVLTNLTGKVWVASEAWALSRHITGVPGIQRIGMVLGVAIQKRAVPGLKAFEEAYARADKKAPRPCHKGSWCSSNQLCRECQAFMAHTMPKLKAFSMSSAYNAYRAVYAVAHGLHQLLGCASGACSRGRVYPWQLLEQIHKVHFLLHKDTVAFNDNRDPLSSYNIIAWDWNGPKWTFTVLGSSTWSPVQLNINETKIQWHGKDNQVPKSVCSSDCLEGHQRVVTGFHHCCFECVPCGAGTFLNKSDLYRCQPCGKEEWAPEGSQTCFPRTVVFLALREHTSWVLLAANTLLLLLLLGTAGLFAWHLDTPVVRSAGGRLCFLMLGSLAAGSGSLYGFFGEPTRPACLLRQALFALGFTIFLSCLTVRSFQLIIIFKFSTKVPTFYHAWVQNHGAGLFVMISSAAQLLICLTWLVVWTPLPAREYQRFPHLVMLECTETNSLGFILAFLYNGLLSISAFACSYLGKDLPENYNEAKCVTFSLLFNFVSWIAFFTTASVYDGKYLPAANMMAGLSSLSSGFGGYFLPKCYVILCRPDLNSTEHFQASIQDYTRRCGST
T1 sequence (Q923K1 21-858 partner): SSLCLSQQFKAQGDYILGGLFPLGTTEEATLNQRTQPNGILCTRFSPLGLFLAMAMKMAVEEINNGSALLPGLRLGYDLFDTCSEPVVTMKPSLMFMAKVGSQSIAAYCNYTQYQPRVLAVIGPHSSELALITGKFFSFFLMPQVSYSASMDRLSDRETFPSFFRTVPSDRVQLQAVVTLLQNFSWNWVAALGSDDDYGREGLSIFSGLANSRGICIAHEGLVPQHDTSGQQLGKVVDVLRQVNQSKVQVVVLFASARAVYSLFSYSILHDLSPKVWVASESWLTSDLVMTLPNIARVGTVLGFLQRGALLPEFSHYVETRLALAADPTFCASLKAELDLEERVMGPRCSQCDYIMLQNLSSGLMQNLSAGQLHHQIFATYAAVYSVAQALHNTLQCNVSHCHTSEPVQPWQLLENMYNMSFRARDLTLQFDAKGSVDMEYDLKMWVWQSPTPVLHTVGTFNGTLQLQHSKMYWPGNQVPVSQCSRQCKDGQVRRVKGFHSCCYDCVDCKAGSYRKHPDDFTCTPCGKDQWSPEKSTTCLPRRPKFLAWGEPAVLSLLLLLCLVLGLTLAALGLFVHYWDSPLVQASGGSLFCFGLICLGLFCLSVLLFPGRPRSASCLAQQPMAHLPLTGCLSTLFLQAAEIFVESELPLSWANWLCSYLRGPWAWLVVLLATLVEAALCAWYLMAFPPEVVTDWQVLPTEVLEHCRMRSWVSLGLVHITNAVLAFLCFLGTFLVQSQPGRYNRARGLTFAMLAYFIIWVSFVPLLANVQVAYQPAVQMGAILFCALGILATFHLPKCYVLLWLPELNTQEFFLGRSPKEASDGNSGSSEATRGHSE
Assay: Calcium assay, hTAS1R1 mutant co-expressed with rTAS1R3
Assay type: cell-based, rat

Row | Structure (SMILES) | EC50 [µM] | effect of the added compound (1 mM) on the response to L-Glu (R151A) | Max ∆F/F0 (R151A, GSH) | R1 = mutant EC50/WT EC50 (R151A, GSH) | response to the agonist alone, vs WT (R151A)
1 | N[C@@H](CCC(=O)N[C@@H](CS)C(=O)NCC(=O)O)C(=O)O [GSH, γ-L-glutamyl-L-cysteinyl-glycine] | 2590 ± 1590 | did not affect | 0.31 ± 0.08 | 1.0 | 
2 | CCCC(CCC)NC(=O)c1ccc2c(c1)OCO2 [S807, N-(heptan-4-yl)benzo[d][1,3]dioxole-5-carboxamide, reference compound] |  |  |  |  | strongly affected
